Source: patent publication US7273949B2, “Salts and methods for their preparation” (Halliburton Energy Services, Inc., priority 2005, dated 2007)

How the values were obtained:
skeletonema costatum = assay: Toxicity to algae, ISO 10253 (HOCNF); type: in vivo
Source text: (§1) According to still other embodiments described herein, a disulfonate salt of 2,4-pentanedione is provided. According to one such embodiment, the salt comprises 2,4-pentanedione-1,5-sodium disulfonate. According to another such embodiment, a disulfonate salt of 2,4-pentanedione has an environmentally acceptable toxicity. As used herein, the term “environmentally acceptable toxicity” means that, when tested according to procedures that are the same as or equivalent to those set forth by the OSPAR Guidelines for Completing the Harmonised Offshore Chemical Notification Format (HOCNF) (References number: 2003-1) that were in effect on Dec. 31, 2004, the salt is determined to have a toxicity of greater than about 10,000 mg/L for an algae (skeletonema costatum), a crustacean (acartia tonsa), a fish (scopthalmus) and a sediment reworker (corophium volutator). […]
(§2) In this Example 3, the toxicity results for the skeletonema costatum were determined according to ISO (International Organization for Standardization) 10253, the protocol for which is known to those of ordinary skill in the art, and is also the protocol required under the above-referenced HOCNF Guidelines. The toxicity results for the acartia tonsa were determined according to ISO 14669, the protocol for which is known to those of ordinary skill in the art. […]

acartia tonsa = assay: Toxicity to crustacean, ISO 14669; type: in vivo
Source text: as §1, §2

corophium volutator = assay: Toxicity to sediment reworker, Part B of the OSPAR Protocols; type: in vivo
Source text: as §1, §2

scopthalmus = assay: Toxicity to fish, Part B of the OSPAR Protocols; type: in vivo
Source text: as §1, §2

[1] = Solubility of the salt compared to the free acid (methanol rinse); type: physicochemical
Source text: The neutralized product is then rinsed with a rinsing agent, for example, methanol, to remove other acid by-products, such as hydrochloric and sulfuric acids, and/or mono-sulfonic acids, and/or to remove other salts formed by the neutralization, such as salts of hydrochloric and sulfuric acids, and/or mono-sulfonic acids. It was discovered that […] solvents, such as methanol, would remove the by-product acids and/or salts, while leaving the salt of 2,4-pentanedione-1,5 disulfonic acid primarily undissolved.
The neutralized product was then rinsed several times with methanol to remove by-product acids, or any salts formed therefrom, while leaving the 2,4-pentanedione-1,5-sodium disulfonate primarily undissolved. […] The rinsed product was dried in a vacuum oven and filtered through a 300 mesh screen to afford a flowing pale orange/red powder. The resulting powder was 2,4-pentanedione-1,5-sodium disulfonate.

SMILES: O=C(CC(=O)CS(=O)(=O)[O-])CS(=O)(=O)[O-].[Na+].[Na+] [2,4-pentanedione-1,5-sodium disulfonate]
- toxicity (amount required to kill or incapacitate half the test population) (skeletonema costatum): greater than 10,000 mg/L
- toxicity (amount required to kill or incapacitate half the test population) (acartia tonsa): greater than 10,000 mg/L
- toxicity (amount required to kill or incapacitate half the test population) (corophium volutator): greater than 10,000 mg/L
- toxicity (amount required to kill or incapacitate half the test population) (scopthalmus): greater than 10,000 mg/L
- solubility compared to the 2,4-pentanedione-1,5-disulfonic free acid [1]: significantly less soluble
